Experimental findings from PubChem BioAssay AID2060489 (Molecular Pharmacology Branch, DTP, NCI, 2025) are described below.

pIC50: −log10 of the molar value. Where “and” joins values, the source holds several entries; their conditions need not be identical. Equal entries are not always repeated.

The subject of the test is 922993-354-T-J3-PDC complex spheroids, viability. Briefly: Anticancer human tumor 922993-354-T-J3-PDC patient-derived endometrial carcinoma cell line growth inhibition [GQUAD]. The note with it: for viability, T/C: stronger effect = lower value. From the text: DNA G-quadruplex Stabilizer Agents in Combinations in Complex Spheroids
A high-throughput screen of multi-cell type tumor spheroids was designed to identify active combinations of DNA G-quadruplex stabilizer agents and targeted small molecules. Complex spheroids include a stromal component modeled by human endothelial cells (HUVEC) and fibroblasts modeled by human mesenchymal stem cells (MSCs). The concentration ranges selected for each drug and investigational agent were based upon clinically achievable concentrations if the clinical Cmax of the agent was known.
Compounds. The drugs and investigational agents: pidnarulex (CX-5461; NSC782164), APTO-253 (NSC789042), BRACO-19 (NSC847499), peposertib (NSC802822), ceralasertib (NSC780249), elimusertib (NSC800525), camonsertib (NSC841442), AZD-1390 (NSC803789), olaparib (NSC753686), talazoparib (NSC767125), ART-558 (NSC835418), sotorasib (NSC818433), MRTX-1133 (NSC836407), SN-38 (NSC673596), topotecan (NSC609699), etoposide (NSC141540), doxorubicin (NSC123127), gemcitabine (NSC613327), 5-fluorouracil (NSC19893), paclitaxel (NSC125973), vemurafenib (NSC761431), panobinostat (NSC761190), R-306465 (JNJ-16241199; NSC773264), adavosertib (NSC754352), TP-3654 (NSC805149), carboplatin (NSC241240), KSQ-4279 (NSC840948), and staurosporine (NSC755774) were obtained from the National Cancer Institute (NCI) Developmental Therapeutics Program Chemical Repository (34). The FDA-approved anticancer drug set is available from the NCI Developmental Therapeutics Program. […] The stock solutions were prepared in dimethyl sulfoxide (DMSO, Sigma-Aldrich, St. Louis, MO, cat. D2650) at 800-fold the tested concentration and stored at -70 degrees C prior to their use. All drugs and investigational agents were tested over a range starting from a high concentration at or near the clinical Cmax and decreasing in half-log increments. If the clinical Cmax for an agent had not been determined, the highest concentration tested was 10 microM.
2.3 Cell Culture. All cells were maintained in an incubator at 37 degrees C and 5% CO2 with 95% humidity. The PDC lines were cultured according to standard operating procedures established by the NCI PDMR. All PDCs were thawed and cultured in Matrigel-coated flasks prepared with a working solution of 1X Ham's F-12 nutrient mix, without supplementation (Invitrogen, cat. 11765054), 100 U/mL penicillin-streptomycin (Invitrogen, cat. 15140122), and 2.5% Matrigel (Corning Inc., cat. 354248) for the first three passages. The 857933-349-R-J2-PDC line was cultured in 6C/Colon 1B media, which includes advanced DMEM/F-12 (Thermo Fisher Scientific, cat. 12634028), 10 mM HEPES (Thermo Fisher Scientific, cat. 15630080), 1X GlutaMAX supplement (Thermo Fisher Scientific, cat. 35050061), 0.1 mg/mL primocin (InvivoGen, cat. ant-pm-2), 10% defined fetal bovine serum, heat inactivated (HyClone Laboratories Inc., cat. SH30070.03HI), 50% L-WRN conditioned media (ATCC, cat. CRL-3276), 1.25 mM N-Acetyl-L-cysteine (Sigma-Aldrich, cat. A9165), 10 mM nicotinamide (Sigma-Aldrich, cat. N0636), 1X B-27 supplement (Thermo Fisher Scientific, cat. 17504044), 1X N-2 supplement (Thermo Fisher Scientific, cat. 17502048), 10 microM Y-27632 dihydrochloride (Tocris Bioscience, cat. 1254), and 50 ng/mL human EGF recombinant protein (Thermo Fisher Scientific, cat. PHG0311). The 485176-168-R4-J1-PDC line was cultured in Panc media, which includes all 6C/Colon 1B media components plus 100 ng/mL human FGF-10 (Thermo Fisher Scientific, cat. 100-26), 500 nM SB-431542 (Selleckchem, cat. S1067), and gastrin (Tocris, cat. 3006).
[…]
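Also: spheroids exposed to compounds for seven days.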

A word on the pIC50: it is −log10 of the IC50, conventionally taken in molar units. For orientation: viability, T/C means the ratio of treated to control. With `CCc1c2c(nc3ccc(O)cc13)-c1cc3c(c(=O)n1C2)COC(=O)[C@]3(O)CC` + Cc1[nH]c2ccc(F)cc2c1-c1nc2c3cccnc3c3ncccc3c2[nH]1, the pIC50 by setting is: (curve of first compound, second compound 0.0316 µM) 8.12; (curve of first compound, second compound 0.1 µM) 8.09; (curve of first compound, second compound 0.316 µM) 8.18; (curve of first compound, second compound 1 µM) 8.10; (curve of first compound, second compound 3.16 µM) 8.12; (curve of first compound, second compound 10 µM) 8.17. Besides, the viability, T/C (second compound 0.0316 µM, first compound 0.000999 µM) is 91.8%; the viability, T/C (second compound 0.0316 µM, first compound 0.00316 µM) was 68.3%; the viability, T/C (second compound 0.0316 µM, first compound 0.00999 µM) was 48.7%; the viability, T/C (second compound 0.0316 µM, first compound 0.0316 µM) was 22.1%; the viability, T/C (second compound 0.0316 µM, first compound 0.0999 µM) was 25.9%; the viability, T/C (second compound 0.0316 µM, first compound 0.316 µM) was 32.9%. The viability, T/C (second compound 0.1 µM, first compound 0.000999 µM) was 103%; the viability, T/C (second compound 0.1 µM, first compound 0.00316 µM) is 81.9%; the viability, T/C (second compound 0.1 µM, first compound 0.00999 µM) is 44.2%; the viability, T/C (second compound 0.1 µM, first compound 0.0316 µM) was 24.4%; the viability, T/C (second compound 0.1 µM, first compound 0.0999 µM) was 25.4%; the viability, T/C (second compound 0.1 µM, first compound 0.316 µM) is 33%. Further, the viability, T/C reads like this: (second compound 0.316 µM, first compound 0.000999 µM) 119%; (second compound 0.316 µM, first compound 0.00316 µM) 76.1%; (second compound 0.316 µM, first compound 0.00999 µM) 36.6%; (second compound 0.316 µM, first compound 0.0316 µM) 23.4%; (second compound 0.316 µM, first compound 0.0999 µM) 24.6%; (second compound 0.316 µM, first compound 0.316 µM) 36.5%. The viability, T/C was 101% (second compound 1 µM, first compound 0.000999 µM); 82.4% (second compound 1 µM, first compound 0.00316 µM); 43.4% (second compound 1 µM, first compound 0.00999 µM); 24.3% (second compound 1 µM, first compound 0.0316 µM); 22.6% (second compound 1 µM, first compound 0.0999 µM); 32.1% (second compound 1 µM, first compound 0.316 µM). Besides, the viability, T/C is, setting by setting: (second compound 3.16 µM, first compound 0.000999 µM) 105%; (second compound 3.16 µM, first compound 0.00316 µM) 67.2%; (second compound 3.16 µM, first compound 0.00999 µM) 53.6%; (second compound 3.16 µM, first compound 0.0316 µM) 15.6%; (second compound 3.16 µM, first compound 0.0999 µM) 31.4%; (second compound 3.16 µM, first compound 0.316 µM) 28.9%. For the same compound, the viability, T/C was 102% (second compound 10 µM, first compound 0.000999 µM); 65.4% (second compound 10 µM, first compound 0.00316 µM); 48.5% (second compound 10 µM, first compound 0.00999 µM); 18.8% (second compound 10 µM, first compound 0.0316 µM); 22.9% (second compound 10 µM, first compound 0.0999 µM); 33.6% (second compound 10 µM, first compound 0.316 µM).
In the case of `Nc1ccn(C2OC(CO)C(O)C2(F)F)c(=O)n1` (configuration not stated), the viability, T/C is 22.6% and 12.1% and 26.3% (compound 0.0316 µM); 22% and 11.3% and 23.6% (compound 0.1 µM); 28% and 12.5% and 23.7% (compound 0.316 µM); 24.6% and 13.1% and 30.6% (compound 1 µM); 23.4% and 12.9% and 18.8% (compound 3.16 µM); 20.9% and 11.3% and 20.8% (compound 10 µM). Also, where the note is “curve of compound”, the negative-log IC50 (pIC50) was above 7.50.
Take `Cc1cccc(N(C)C(=O)C2C(O)CCN2c2nc(C)cc(C(F)(F)F)c2C#N)c1` (configuration not stated): the viability, T/C was 90.6% and 93.6% and 97.1% (compound 0.0316 µM); 106% and 90.6% and 105% (compound 0.1 µM); 83.6% and 87.3% and 122% (compound 0.316 µM); 118% and 86.8% and 91.9% (compound 1 µM); 122% and 71.7% and 102% (compound 3.16 µM); 110% and 94.2% and 78.3% (compound 10 µM). In addition, the pIC50 (curve of compound) is below 5.00.
As to `O=c1[nH]cc(F)c(=O)[nH]1`, the viability, T/C was 104% and 107% and 113% (compound 0.0316 µM); 98.3% and 97.9% and 83.3% (compound 0.1 µM); 99.5% and 94.9% and 75% (compound 0.316 µM); 76% and 72.9% and 90.1% (compound 1 µM); 81.2% and 74.1% and 57% (compound 3.16 µM); 47.9% and 65.3% and 16.6% (compound 10 µM). Moreover, the pIC50 (curve of compound) is < 5.00 and 5.41.
On to `CC(=O)O[C@H]1C(=O)[C@@]2(C)[C@H]([C@H](OC(=O)c3ccccc3)[C@]3(O)C[C@H](OC(=O)[C@H](O)[C@@H](NC(=O)c4ccccc4)c4ccccc4)C(C)=C1C3(C)C)[C@]1(OC(C)=O)CO[C@@H]1C[C@@H]2O`, for which the viability, T/C (compound 0.0316 µM) was 109% and 89.5% and 121%; the viability, T/C (compound 0.1 µM) is 95% and 93% and 85.9%; the viability, T/C (compound 0.316 µM) is 84.9% and 103% and 93.4%; the viability, T/C (compound 1 µM) is 111% and 108% and 102%; the viability, T/C (compound 3.16 µM) is 75.6% and 78.7% and 84.9%; the viability, T/C (compound 10 µM) was 36.8% and 47.7% and 50%. Also, the pIC50 (curve of compound) is 5.17 and 5.04 and < 5.00.
As to `COc1cccc2c1C(=O)c1c(O)c3c(c(O)c1C2=O)CC(O)(C(=O)CO)CC3OC1CC(N)C(O)C(C)O1` (configuration not stated), the viability, T/C is, setting by setting: (compound 0.0316 µM) 101% and 78% and 112%; (compound 0.1 µM) 85.8% and 98% and 78.3%; (compound 0.316 µM) 83.7% and 94.3% and 93%; (compound 1 µM) 108% and 71.4% and 89.4%; (compound 3.16 µM) 68.2% and 64.5% and 86%; (compound 10 µM) 57.2% and 28.9% and 43.5%. Further, the negative-log IC50 (pIC50) (curve of compound) is < 5.00 and 5.32 and 5.07.
